From US11345681B1, “Inhibitors of fibroblast growth factor receptor kinases” (Kinnate Biopharma Inc., priority 2020, dated 2022)

Target: Wild type FGFR2 (Homo sapiens (Human), UniProt P21802)
Test: FGFR2 kinase assay (fluorescence-based microfluidic mobility shift assay)
Type: biochemical
Conditions: not given

Wild type FGFR2, sequence (P21802 22-821): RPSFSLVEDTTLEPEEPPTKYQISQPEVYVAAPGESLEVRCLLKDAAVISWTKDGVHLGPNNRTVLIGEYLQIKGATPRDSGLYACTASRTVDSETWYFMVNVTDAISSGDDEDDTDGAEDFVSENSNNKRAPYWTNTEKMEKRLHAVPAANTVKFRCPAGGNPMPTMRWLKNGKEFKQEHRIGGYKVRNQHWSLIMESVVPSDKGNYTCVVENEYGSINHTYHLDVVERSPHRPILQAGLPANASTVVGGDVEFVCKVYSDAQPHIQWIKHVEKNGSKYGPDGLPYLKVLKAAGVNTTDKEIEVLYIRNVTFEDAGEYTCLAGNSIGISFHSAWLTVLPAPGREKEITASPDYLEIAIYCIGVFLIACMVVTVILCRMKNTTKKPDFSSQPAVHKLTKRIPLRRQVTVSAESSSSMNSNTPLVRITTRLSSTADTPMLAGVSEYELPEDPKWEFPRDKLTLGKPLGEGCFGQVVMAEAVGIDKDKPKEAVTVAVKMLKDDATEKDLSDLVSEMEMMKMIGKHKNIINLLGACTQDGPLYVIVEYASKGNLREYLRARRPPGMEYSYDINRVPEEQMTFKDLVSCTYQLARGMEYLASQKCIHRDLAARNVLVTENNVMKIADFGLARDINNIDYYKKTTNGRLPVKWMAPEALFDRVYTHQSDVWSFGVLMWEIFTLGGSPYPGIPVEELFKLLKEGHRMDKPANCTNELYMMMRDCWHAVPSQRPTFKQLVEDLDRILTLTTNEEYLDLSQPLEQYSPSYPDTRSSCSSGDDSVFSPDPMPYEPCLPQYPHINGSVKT

SMILES | IC50 [µM]
C#CC(=O)N1C[C@@H](n2nc(C#Cc3cc4ncn(C5CC5)c4cc3F)c(C(N)=O)c2NC)C[C@@H]1CO [Example 198, 3-[2-(1-Cyclopropyl-6-fluoro-1,3-benzodiazol-5-yl)ethynyl]-1-[(3S,5R)-5-(hydroxymethyl)-1-(prop-2-ynoyl)pyrrolidin-3-yl]-5-(methylamino)pyrazole-4-carboxamide] | < 0.1

Same assay, conditions: wild type FGFR2 0.06 nM, 100 μM ATP, 80 minutes at room temperature; class symbols

IC50 [µM] | SMILES
≤ 0.1 | CC#CC(=O)N1C[C@@H](n2nc(C#Cc3c(F)cc4c(ncn4C4CC4)c3F)c(C(N)=O)c2NC)C[C@@H]1COC [Example 185, 1-[(3S,5R)-1-(But-2-ynoyl)-5-(methoxymethyl)pyrrolidin-3-yl]-3-[2-(1-cyclopropyl-4,6-difluoro-1,3-benzodiazol-5-yl)ethynyl]-5-(methylamino)pyrazole-4-carboxamide]
≤ 0.1 | C=CC(=O)N1CC[C@H](n2nc(C#Cc3c(F)cc4c(ncn4C4CC4)c3F)c(C(N)=O)c2NC)C1 [Example 186, 3-[2-(1-Cyclopropyl-4,6-difluoro-1,3-benzodiazol-5-yl)ethynyl]-5-(methylamino)-1-[(3S)-1-(prop-2-enoyl)pyrrolidin-3-yl]pyrazole-4-carboxamide]
≤ 0.1 | C=CC(=O)N1C[C@@H](n2nc(C#Cc3c(F)cc4c(ncn4C4CC4)c3F)c(C(N)=O)c2N)C[C@@H]1COC [Example 189, 5-amino-3-[2-(1-cyclopropyl-4,6-difluoro-1,3-benzodiazol-5-yl)ethynyl]-1-[(3S,5R)-5-(methoxymethyl)-1-(prop-2-enoyl)pyrrolidin-3-yl]pyrazole-4-carboxamide]
≤ 0.1 | C=CC(=O)N1CC[C@H](n2nc(C#Cc3c(F)cc4c(ncn4C4CC4)c3F)c(C(N)=O)c2N)C1 [Example 190, 5-Amino-3-[2-(1-cyclopropyl-4,6-difluoro-1,3-benzodiazol-5-yl)ethynyl]-1-[(3S)-1-(prop-2-enoyl)pyrrolidin-3-yl]pyrazole-4-carboxamide]
≤ 0.1 | C=CC(=O)N1C[C@@H](n2nc(C#Cc3cc4ncn(CC)c4cc3Cl)c(C(N)=O)c2NC)C[C@@H]1CO [Example 191, 3-[2-(6-Chloro-1-ethyl-1,3-benzodiazol-5-yl)ethynyl]-1-[(3S,5R)-5-(hydroxymethyl)-1-(prop-2-enoyl)pyrrolidin-3-yl]-5-(methylamino)pyrazole-4-carboxamide]
≤ 0.1 | C=CC(=O)N1CC(n2nc(C#Cc3cc4ncn(CC)c4cc3Cl)c(C(N)=O)c2NC)C1 [Example 192, 3-[2-(6-chloro-1-ethyl-1,3-benzodiazol-5-yl)ethynyl]-5-(methylamino)-1-[1-(prop-2-enoyl)azetidin-3-yl]pyrazole-4-carboxamide]
≤ 0.1 | C=CC(=O)N1C[C@@H](n2nc(C#Cc3cc4ncn(CC)c4cc3Cl)c(C(N)=O)c2N)C[C@@H]1CO [Example 194, 5-Amino-3-[2-(6-chloro-1-ethyl-1,3-benzodiazol-5-yl)ethynyl]-1-[(3S,5R)-5-(hydroxymethyl)-1-(prop-2-enoyl)pyrrolidin-3-yl]pyrazole-4-carboxamide]
≤ 0.1 | C=CC(=O)N1C[C@@H](n2nc(C#Cc3cc4ncn(CC)c4cc3Cl)c(C(N)=O)c2N)C[C@@H]1COC [Example 196, 5-Amino-3-[2-(6-chloro-1-ethyl-1,3-benzodiazol-5-yl)ethynyl]-1-[(3S,5R)-5-(methoxymethyl)-1-(prop-2-enoyl)pyrrolidin-3-yl]pyrazole-4-carboxamide]
≤ 0.1 | C=CC(=O)N1C[C@@H](n2nc(C#Cc3cc4ncn(C5CC5)c4cc3Cl)c(C(N)=O)c2N)C[C@@H]1CO [Example 199, 5-Amino-3-[2-(6-chloro-1-cyclopropyl-1,3-benzodiazol-5-yl)ethynyl]-1-[(3S,5R)-5-(hydroxymethyl)-1-(prop-2-enoyl)pyrrolidin-3-yl]pyrazole-4-carboxamide]

SMILES | IC50 [µM]
C=CC(=O)N1CC(n2nc(C#Cc3c(F)cc4c(ncn4C4CC4)c3F)c(C(N)=O)c2NC)C1 [Example 193, 3-[2-(1-Cyclopropyl-4,6-difluoro-1,3-benzodiazol-5-yl)ethynyl]-5-(methylamino)-1-[1-(prop-2-enoyl)azetidin-3-yl]pyrazole-4-carboxamide] | ≤ 0.1
